One may read the Ki as a dissociation constant, usually derived from enzyme kinetics or from competition with a known ligand.

In assay [1] the target is DNA (cytosine-5)-methyltransferase 1 (Homo sapiens) (UniProt P26358). As to the kind of experiment: Inhibition of DNMT1 (unknown origin) up to 6 uM preincubated for 15 mins followed by DNA addition measured after 30 mins relative to control. The settings on record: dose microM <=6, time 15.0 min.
Assay [2] in a line: Inhibition of bacterial DNA cytosine methyltransferase M.SssI up to 60 uM preincubated for 15 mins followed by DNA addition measured after 30 mins relative to control. The settings on record: dose microM <=60, time 15.0 min.
The target of assay [3] is T1, DNA (cytosine-5)-methyltransferase 3A (Homo sapiens, UniProt Q9Y6K1). As to the kind of experiment: Inhibition of human DNMT3A (628 to 912 residues) preincubated for 15 mins followed by DNA addition measured after 30 mins relative to control.
For assay [4], the target named is T1, DNA (cytosine-5)-methyltransferase 3A. As to the kind of experiment: Uncompetitive inhibition of human DNMT3A using AdoMet as substrate.
Assay [5] shares this target. As to the kind of experiment: Binding affinity to human DNMT3A catalytic domain assessed as inhibition of enzyme-mediated DNA methylation using 3H-AdoMet as substrate incubated for 30 mins.
For assay [6] the target is unchanged. As to the kind of experiment: Uncompetitive inhibition of human DNMT3A using poly dl-dC as substrate.
Assay [7] has the same target. As to the kind of experiment: Binding affinity to human DNMT3A catalytic domain assessed as inhibition of enzyme-mediated DNA methylation using poly dl-dC as substrate incubated for 30 mins.
Assay [8] shares this target. As to the kind of experiment: Mixed type inhibition of human DNMT3A using AdoMet as substrate.
Assay [9] has the same target. As to the kind of experiment: Mixed type inhibition of human DNMT3A using poly dl-dC as substrate.

The source made the active and inactive calls. The calls are words filed in the database; no cut-off is given here.

T1 sequence (Q9Y6K1 whole entry, looked up, the tested form may be a part): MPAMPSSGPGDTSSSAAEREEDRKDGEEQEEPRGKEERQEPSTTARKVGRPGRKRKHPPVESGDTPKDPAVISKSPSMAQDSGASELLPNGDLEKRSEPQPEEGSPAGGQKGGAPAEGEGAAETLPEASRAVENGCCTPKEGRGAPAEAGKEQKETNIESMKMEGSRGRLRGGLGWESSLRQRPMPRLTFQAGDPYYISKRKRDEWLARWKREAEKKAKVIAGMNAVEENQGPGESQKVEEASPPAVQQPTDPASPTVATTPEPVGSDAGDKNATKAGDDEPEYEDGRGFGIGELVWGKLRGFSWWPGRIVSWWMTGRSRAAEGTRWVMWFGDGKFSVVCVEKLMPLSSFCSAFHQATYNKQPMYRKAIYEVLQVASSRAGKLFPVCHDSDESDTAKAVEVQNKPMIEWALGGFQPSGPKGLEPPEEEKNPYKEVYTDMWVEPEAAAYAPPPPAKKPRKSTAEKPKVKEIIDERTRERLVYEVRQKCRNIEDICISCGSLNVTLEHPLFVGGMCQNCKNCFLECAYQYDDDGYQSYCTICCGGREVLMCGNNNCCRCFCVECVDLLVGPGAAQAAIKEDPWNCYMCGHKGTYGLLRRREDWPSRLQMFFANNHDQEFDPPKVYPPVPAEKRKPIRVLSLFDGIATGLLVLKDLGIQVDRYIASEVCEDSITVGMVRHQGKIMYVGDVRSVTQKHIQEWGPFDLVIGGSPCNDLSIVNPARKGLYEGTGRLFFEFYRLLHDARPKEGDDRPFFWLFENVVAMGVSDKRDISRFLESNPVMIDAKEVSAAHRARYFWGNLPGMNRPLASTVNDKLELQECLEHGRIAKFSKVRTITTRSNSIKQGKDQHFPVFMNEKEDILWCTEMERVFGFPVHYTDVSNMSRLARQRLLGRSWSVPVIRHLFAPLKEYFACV
DNA (cytosine-5)-methyltransferase 1 (Homo sapiens), sequence (P26358 whole entry): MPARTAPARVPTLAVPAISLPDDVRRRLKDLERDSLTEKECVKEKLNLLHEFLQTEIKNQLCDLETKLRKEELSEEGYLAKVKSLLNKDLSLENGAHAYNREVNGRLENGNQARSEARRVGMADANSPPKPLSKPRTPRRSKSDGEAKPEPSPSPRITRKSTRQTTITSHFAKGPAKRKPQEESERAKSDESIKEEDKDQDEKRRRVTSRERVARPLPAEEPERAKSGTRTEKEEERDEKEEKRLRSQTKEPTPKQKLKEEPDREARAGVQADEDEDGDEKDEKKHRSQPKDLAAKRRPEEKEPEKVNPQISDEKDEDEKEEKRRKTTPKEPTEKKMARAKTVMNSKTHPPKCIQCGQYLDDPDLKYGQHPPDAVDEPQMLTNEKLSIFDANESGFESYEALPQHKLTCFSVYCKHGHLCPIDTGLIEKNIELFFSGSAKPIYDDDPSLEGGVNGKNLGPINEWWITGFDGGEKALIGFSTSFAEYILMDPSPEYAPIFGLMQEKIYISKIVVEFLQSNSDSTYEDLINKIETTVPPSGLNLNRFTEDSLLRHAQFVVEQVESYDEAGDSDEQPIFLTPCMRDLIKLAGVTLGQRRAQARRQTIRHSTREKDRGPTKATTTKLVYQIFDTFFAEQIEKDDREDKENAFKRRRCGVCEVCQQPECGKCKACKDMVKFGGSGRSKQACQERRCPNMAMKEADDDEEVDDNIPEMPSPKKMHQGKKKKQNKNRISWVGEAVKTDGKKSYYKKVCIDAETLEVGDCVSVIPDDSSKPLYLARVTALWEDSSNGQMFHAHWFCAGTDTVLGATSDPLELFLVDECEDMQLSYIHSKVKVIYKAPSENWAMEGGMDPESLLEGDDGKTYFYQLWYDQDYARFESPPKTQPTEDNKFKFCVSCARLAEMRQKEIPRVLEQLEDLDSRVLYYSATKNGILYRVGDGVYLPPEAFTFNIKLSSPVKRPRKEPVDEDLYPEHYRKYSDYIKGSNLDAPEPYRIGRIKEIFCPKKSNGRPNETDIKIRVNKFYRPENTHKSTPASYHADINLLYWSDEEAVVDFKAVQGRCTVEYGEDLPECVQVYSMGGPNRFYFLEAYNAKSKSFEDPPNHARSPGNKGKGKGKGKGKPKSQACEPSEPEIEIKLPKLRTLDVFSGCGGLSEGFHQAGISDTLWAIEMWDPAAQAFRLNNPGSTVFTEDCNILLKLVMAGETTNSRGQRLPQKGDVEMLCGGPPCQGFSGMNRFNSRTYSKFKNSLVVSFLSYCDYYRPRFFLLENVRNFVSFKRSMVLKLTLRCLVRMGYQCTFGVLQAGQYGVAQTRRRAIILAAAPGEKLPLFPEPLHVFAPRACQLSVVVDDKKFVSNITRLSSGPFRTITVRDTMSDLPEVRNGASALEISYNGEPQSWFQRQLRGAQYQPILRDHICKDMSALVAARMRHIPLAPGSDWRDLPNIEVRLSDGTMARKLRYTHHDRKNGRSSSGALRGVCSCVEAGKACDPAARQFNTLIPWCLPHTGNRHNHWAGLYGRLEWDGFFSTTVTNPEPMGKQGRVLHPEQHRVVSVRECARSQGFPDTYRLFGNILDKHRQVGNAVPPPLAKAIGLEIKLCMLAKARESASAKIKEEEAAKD

On to `COc1ccc(C2=NN(C3CCCCCC3)C(=O)C2(C)C)cc1OCCCCOc1ccc(-c2nn[nH]n2)cc1`, for which the inhibition result in assay [1] and in [3] was “Active” each time. In addition, the inhibition entry in assay [2] is “inactive”.
On to `COc1ccc(C2=NN(C3CCCCCC3)C(=O)[C@@H]3CC=CC[C@H]23)cc1OCCCCOc1ccc(-c2nnn[nH]2)cc1`, for which the Ki in [4] was determined as 9.16 µM; in assay [5], 13.8 µM; in assay [6], 11.4 µM; in assay [7], 16.1 µM. In addition, the inhibition result in [1] and in assay [3] was “Active” each time. Further, in assay [2], the inhibition entry was “inactive”.
On to `COc1ccc(C2=NN(C3CCCCCC3)C(=O)C2(C)C)cc1OCCCCOc1ccc(-c2nnn[nH]2)cc1`, for which the Ki was determined as 3.7 µM in [8], 5.03 µM in assay [5], 12.6 µM in assay [9] and 21.6 µM in assay [7].

For the origin of these results see ChEMBL document CHEMBL4813980, “A novel class of selective non-nucleoside inhibitors of human DNA methyltransferase 3A” (Bioorg Med Chem Lett, 2021).
